Values after ≈ are worked out from the molar mass of the structure shown. Read-outs that look alike come from different tables or passages of the source.
Experiments:
[1] = In vitro dissolution test of tablets in biorelevant media (USP apparatus II paddle); type: physicochemical; details: for Dissolution in FaSSIF-V2: tablet, 500 mL, paddle 50 rpm, up to 60 min
Protocol: (§1) Fasted State Simulated Gastric Fluid (FaSSGF) and Fasted State Simulated Intestinal Fluid version 2 (FaSSIF-V2) were used for dissolution tests and solubility tests. Fed State Simulated Intestinal Fluid version 2 (FeSSIF-V2) was used for solubility tests. These media contain sodium taurocholate as the bile acid. Their composition and preparation method have been previously reported and were prepared accordingly, except that FaSSGF was used without pepsin.
For in vitro dissolution tests, a USP apparatus II paddle dissolution tester (NTR-6400AC, Toyama Sangyo Co., Ltd., Osaka, Japan) was used. The media volume of FaSSGF and FaSSIF-V2 was 300 mL and 500 mL, respectively, and temperature in the dissolution vessel was maintained at 37℃ ± 0.5℃. […] Paddle rotation speed during the dissolution test was maintained at 50 rpm for up to 60 min. The samples were filtered through PVDF 0.45 µm filters (Whatman, GD/X, 13 mm, Cytiva, Chicago, IL, USA) immediately after withdrawal, and filtrates were recovered after the first 2 mL was discarded. […] All dissolution tests were conducted in triplicate.
When the tablets […] during the infinity spin in the dissolution test, separate solubility measurements were performed, as described in the next paragraph.
TSKgel ODS-100Z 5 µm (4.6 mm × 15 cm, Tosoh Corporation, Tokyo, Japan) was used as analytical column for both drugs. Column temperature during analysis was set to 40℃. A mixture of perchlorate (Na) buffer pH 2.5 and acetonitrile (50:50, v/v) was used as mobile phase. […] Flow rate and injection volume were 1.2 mL/min and 10 μL, respectively. […]

[2] = set-up: method as in earlier work; details: cited from earlier work
[3] = cited from earlier work
[4] = Solubility test of drug substances in biorelevant media and free fraction calculation; type: physicochemical; details: for Free fraction: fraction of drug not entrapped in micelles in FeSSIF-V2, Eq. (8), from FaSSIF-V2/FeSSIF-V2 solubility; for Solubilization by bile micelles: in vitro solubility in biorelevant media
Protocol: as §1
The excess amount of ezetimibe powder was added to 10 mL FaSSIF-V2 and FeSSIF-V2. Test tubes containing the drug substances in the biorelevant media were vigorously shaken at 37℃ ± 0.5℃ for 5 h. An approximately 5 mL sample was withdrawn using a plastic syringe, then filtered through a PVDF 0.45 µm filter. The filtrates (after discarding the first ca. 2 mL) were diluted with 50:50 v/v acetonitrile for analysis to prevent precipitation, except for that of ezetimibe tested in FeSSIF-V2. All solubility tests were conducted in triplicate.
TSKgel ODS-100Z 5 µm (4.6 mm × 15 cm, Tosoh Corporation, Tokyo, Japan) was used as analytical column for both drugs. Column temperature during analysis was set to 40℃. A mixture of perchlorate (Na) buffer pH 2.5 and acetonitrile (50:50, v/v) was used as mobile phase. […] Flow rate and injection volume were 1.2 mL/min and 10 μL, respectively.
Sodium taurocholate and lecithin concentration in FaSSIF-V2 are 3 mM and 0.2 mM, respectively, and those in FeSSIF-V2 are 10 mM and 2 mM, respectively. […] The formulation was considered able to exist in the small intestine for 4 h after administration. Initial intestinal fluid volume in both prandial states was set to 100 mL [31].

[5] = cited from earlier work; remark: listed apart in the source
[6] = cited from earlier work; remark: listed apart in the source
[7] = Estimation of effective permeability (Peff) in the human small intestine from Caco-2 Papp
Excerpt: The Papp for each compound was cited from previous reports [39, 40] or calculated using an equation [41] based on the reported partition coefficient [25, 42].

[8] = FaSSIF-V2, drug substance powder, 37℃, shaken 5 h, pH 6.5, read-out: Solubility in FaSSIF-V2
[9] = FeSSIF-V2, 37 °C, fessif, thermodynamic from solid, drug substance powder, 37℃, shaken 5 h, pH 5.8, read-out: Solubility in FeSSIF-V2

| solubility at 120 min ([1]; FaSSIF-V2, for PK simulation, Zetia: infinity point of tablet dissolution test, Mobic: adopted from drug substance solubility test) [mg/mL] | Dissolution in FaSSIF-V2 [1] | solubility at 5 h [4, 8] [mg/mL] | solubility at 5 h [4, 9] [mg/mL] | Free fraction [4] | Papp [7] [nm/s] | solubility at 5 h ([4]; blank FaSSIF-V2 (without surfactant), drug substance, medium without surfactant, read-out: Solubility in blank FaSSIF-V2) [mg/mL] | solubility at 5 h ([4]; blank FeSSIF-V2 (without surfactant), drug substance, medium without surfactant, read-out: Solubility in blank FeSSIF-V2) [mg/mL] | Free fraction ([4]; listed as meloxicam) | Compound | Solubility in the aqueous phase [2] | pKa [3] | Solubilization by bile micelles [4] | Effect of concomitant food on extent of absorption [5] | Log P [6] | Log P ([6]; calculated value based on apparent partition coefficient Log Papp) | Plasma concentration of glucuronide relative to parent drug in terms of AUC ([5]; humans, Zetia tablet) |
| --- | --- | --- | --- | --- | --- | --- | --- | --- | --- | --- | --- | --- | --- | --- | --- | --- |
| 0.00493 (≈ 12 µM) | around 20% | 0.00379 ± 0.000133 (≈ 9.26 µM) | 0.0223 ± 0.000203 (≈ 54.5 µM) | 0.169 | 1210 |  |  |  | O=C1[C@H](CC[C@H](O)c2ccc(F)cc2)[C@@H](c2ccc(O)cc2)N1c1ccc(F)cc1 [Ezetimibe, ezetimibe] | virtually insoluble | 9.7 | clearly shown to be solubilized by the mixed micelles | not affected | 4.5 |  |  |
|  | about 80% | 0.172 ± 0.0123 (≈ 489 µM) | 0.0427 ± 0.00153 (≈ 122 µM) | Regard as 1 |  | 0.164 (≈ 467 µM) | 0.0325 (≈ 92.5 µM) | 1 | Cc1cnc(NC(=O)C2=C(O)c3ccccc3S(=O)(=O)N2C)s1 [Meloxicam, meloxicam] |  |  | insignificant |  |  | 3.32 |  |
|  |  |  |  |  |  |  |  |  | O=C(O)[C@H]1O[C@@H](Oc2ccc([C@@H]3[C@@H](CC[C@H](O)c4ccc(F)cc4)C(=O)N3c3ccc(F)cc3)cc2)[C@H](O)[C@@H](O)[C@@H]1O [glucuronide] |  |  |  |  |  |  | about seven-fold |
